# Assay results: the NIST ThermoML archive (doi:10.1021/je700384e)
# ± gives the expanded uncertainty stated by the source.
# Conditions: Crystal; DTA
row,Triple point temperature [K],SMILES
1,154.3 ± 0.5,"CC(F)F [1,1-difluoroethane]"
2,216.56 ± 0.5,O=C=O [carbon dioxide]
3,181.99 ± 0.5,[N-]=[N+]=O [nitrous oxide]
